Results as given in BindingDB's records for doi:10.1021/bi300955k (Dalhousie University, 2012).

Tests used:
Cholinesterase = Cholinesterase (Homo sapiens, UniProt P06276); assay: Inhibition Assay
From the text: (§1) Inhibition constant using AChE or BuChE.

Acetylcholinesterase = Acetylcholinesterase (Homo sapiens, UniProt P22303); assay: Inhibition Assay
From the text: as §1

Cholinesterase, sequence (P06276 whole entry): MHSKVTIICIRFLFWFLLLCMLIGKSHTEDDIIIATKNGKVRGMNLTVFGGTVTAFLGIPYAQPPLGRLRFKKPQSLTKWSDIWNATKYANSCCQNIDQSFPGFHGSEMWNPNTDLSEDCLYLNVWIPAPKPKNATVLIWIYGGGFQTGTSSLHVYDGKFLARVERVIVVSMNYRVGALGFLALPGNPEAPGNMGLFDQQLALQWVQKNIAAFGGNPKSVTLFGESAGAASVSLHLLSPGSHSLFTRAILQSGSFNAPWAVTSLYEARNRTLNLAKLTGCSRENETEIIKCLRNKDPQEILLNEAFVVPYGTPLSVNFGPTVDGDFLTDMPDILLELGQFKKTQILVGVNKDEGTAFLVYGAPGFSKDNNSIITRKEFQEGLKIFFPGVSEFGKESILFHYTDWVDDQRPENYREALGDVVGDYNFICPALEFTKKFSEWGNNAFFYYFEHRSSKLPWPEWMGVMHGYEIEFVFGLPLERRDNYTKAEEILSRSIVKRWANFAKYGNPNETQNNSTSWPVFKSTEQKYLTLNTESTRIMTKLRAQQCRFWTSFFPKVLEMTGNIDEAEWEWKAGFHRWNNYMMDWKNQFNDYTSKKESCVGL
Acetylcholinesterase, sequence (P22303 whole entry): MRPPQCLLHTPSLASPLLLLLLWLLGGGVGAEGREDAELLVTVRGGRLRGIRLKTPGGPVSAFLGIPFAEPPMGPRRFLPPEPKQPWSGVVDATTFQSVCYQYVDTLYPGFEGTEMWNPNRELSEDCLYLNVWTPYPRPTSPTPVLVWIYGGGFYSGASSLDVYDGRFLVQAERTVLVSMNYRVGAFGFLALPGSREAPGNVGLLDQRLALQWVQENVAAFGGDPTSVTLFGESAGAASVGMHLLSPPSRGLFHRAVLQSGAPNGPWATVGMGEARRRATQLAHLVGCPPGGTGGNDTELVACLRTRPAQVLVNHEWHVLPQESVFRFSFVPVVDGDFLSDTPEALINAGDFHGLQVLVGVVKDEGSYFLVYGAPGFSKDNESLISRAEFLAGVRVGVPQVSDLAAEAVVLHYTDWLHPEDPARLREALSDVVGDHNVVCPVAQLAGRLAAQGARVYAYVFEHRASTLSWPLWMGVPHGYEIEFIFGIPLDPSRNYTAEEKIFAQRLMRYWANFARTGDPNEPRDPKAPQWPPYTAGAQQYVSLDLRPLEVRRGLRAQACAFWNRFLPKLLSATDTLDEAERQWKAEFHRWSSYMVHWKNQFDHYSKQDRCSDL

SMILES | Ki (Cholinesterase) [nM] | Ki (Acetylcholinesterase) [nM]
CC(C)N(CCNC(=O)N1c2ccccc2Sc2ccccc21)C(C)C | 21 | 1640
O=C(c1c2ccccc2cc2ccccc12)N1c2ccccc2Sc2ccccc21 [Anthracen-9-yl (10H-phenothiazine-10yl) methanone, 5] | 16 | 
CC[N+](C)(C)c1cccc(O)c1 [Edrophonium Chloride, 3] | 198000 | 
Cc1ccc2c(c1)sc(-c1ccc(N(C)C)cc1)[n+]2C [Thioflavin T, 1] | 3620 | 4990
